Reference: US8211662B2, “Nitroreductase enzymatic substrates” (Biomerieux, priority 2007, dated 2012)

Each compound was assayed on S. aureus (including MRSA) 10 strains (assay: Detection of various strains of S. aureus in the presence of substrates). Conditions: not given.
Type: cell-based, Staphylococcus aureus
In the case of `Cc1ccc2oc(-c3ccccc3[N+](=O)[O-])nc2c1` [Substrate 3], the “Distinguishing or identifying Staphylococcus aureus strains, in particular MRSA, from most of the other Gram-positive bacterial strains” value is reported as “make it possible to distinguish or identify the Staphylococcus aureus strains”. For `O=[N+]([O-])c1ccc(Cl)cc1-c1nc2ccccc2o1` [Substrate 4], the “Distinguishing or identifying Staphylococcus aureus strains, in particular MRSA, from most of the other Gram-positive bacterial strains” value was “make it possible to distinguish or identify the Staphylococcus aureus strains”. With `CN1CCN(c2ccc([N+](=O)[O-])c(-c3nc4ccccc4o3)c2)CC1` [Substrate 8] the “Distinguishing or identifying Staphylococcus aureus strains, in particular MRSA, from most of the other Gram-positive bacterial strains” value was “make it possible to distinguish or identify the Staphylococcus aureus strains”. In the case of `O=[N+]([O-])c1ccc(Cl)cc1-c1nc2ccccc2s1` [Substrate 21], the “Distinguishing or identifying Staphylococcus aureus strains, in particular MRSA, from most of the other Gram-positive bacterial strains” value is reported as “make it possible to distinguish or identify the Staphylococcus aureus strains”.

Same assay, conditions: 24 h; 10 strains
With `Cc1ccc2oc(-c3ccccc3[N+](=O)[O-])nc2c1` [Substrate 3] the “No. of strains detected, S. aureus (including MRSA)” value (from here on “No. of strains detected, S. aureus”) was 10. With `O=[N+]([O-])c1ccc(Cl)cc1-c1nc2ccccc2o1` [Substrate 4] the “No. of strains detected, S. aureus” value was 10. With `CN1CCN(c2ccc([N+](=O)[O-])c(-c3nc4ccccc4o3)c2)CC1` [Substrate 8] the “No. of strains detected, S. aureus” value was 10. In the case of `O=[N+]([O-])c1ccc(Cl)cc1-c1nc2ccccc2s1` [Substrate 21], the “No. of strains detected, S. aureus” value is reported as 10.

Same assay, conditions: 48 h; 10 strains
With `Cc1ccc2oc(-c3ccccc3[N+](=O)[O-])nc2c1` [Substrate 3] the “No. of strains detected, S. aureus” value was 10. In the case of `O=[N+]([O-])c1ccc(Cl)cc1-c1nc2ccccc2o1` [Substrate 4], the “No. of strains detected, S. aureus” value is reported as 10. With `CN1CCN(c2ccc([N+](=O)[O-])c(-c3nc4ccccc4o3)c2)CC1` [Substrate 8] the “No. of strains detected, S. aureus” value was 10. For `O=[N+]([O-])c1ccc(Cl)cc1-c1nc2ccccc2s1` [Substrate 21], the “No. of strains detected, S. aureus” value was 10.

Each compound was assayed on S. epidermidis 2 strains in the same assay as above. Conditions: 24 h.
Type: cell-based
Method: A mass of 40 mg of each substrate was dissolved in 4 ml of dimethylformamide (DMF). This solution was entirely taken up in 400 ml of Columbia agar autoclaved beforehand and kept molten at 50° C. The final concentration for each substrate was 100 mg/l.
Each of the media was distributed into Petri dishes 90 mm in diameter, in a proportion of 20 ml per dish.
18 microorganism strains derived from collections and belonging to various species of bacteria and of yeasts were inoculated onto these media by semi-quantitative isolation of 10 μl of a suspension at 0.5 McFarland diluted to 1/20. […]
In the case of `Cc1ccc2oc(-c3ccccc3[N+](=O)[O-])nc2c1` [Substrate 3], the “No. of strains detected, S. epidermidis” value is reported as 0. For `O=[N+]([O-])c1ccc(Cl)cc1-c1nc2ccccc2o1` [Substrate 4], the “No. of strains detected, S. epidermidis” value was 0. `CN1CCN(c2ccc([N+](=O)[O-])c(-c3nc4ccccc4o3)c2)CC1` [Substrate 8] was tested, and the “No. of strains detected, S. epidermidis” value was 0. With `O=[N+]([O-])c1ccc(Cl)cc1-c1nc2ccccc2s1` [Substrate 21] the “No. of strains detected, S. epidermidis” value was 0.

Same assay, conditions: 48 h
`Cc1ccc2oc(-c3ccccc3[N+](=O)[O-])nc2c1` [Substrate 3] was tested, and the “No. of strains detected, S. epidermidis” value was 2. For `O=[N+]([O-])c1ccc(Cl)cc1-c1nc2ccccc2o1` [Substrate 4], the “No. of strains detected, S. epidermidis” value was 2. `CN1CCN(c2ccc([N+](=O)[O-])c(-c3nc4ccccc4o3)c2)CC1` [Substrate 8] was tested, and the “No. of strains detected, S. epidermidis” value was 2. With `O=[N+]([O-])c1ccc(Cl)cc1-c1nc2ccccc2s1` [Substrate 21] the “No. of strains detected, S. epidermidis” value was 2.

Each compound was assayed on Staph spp 12 strains in the same assay as above. Conditions: 24 h.
Type: cell-based
With `Cc1ccc2oc(-c3ccccc3[N+](=O)[O-])nc2c1` [Substrate 3] the “No. of strains detected, Staph spp” value was 12. With `O=[N+]([O-])c1ccc(Cl)cc1-c1nc2ccccc2o1` [Substrate 4] the “No. of strains detected, Staph spp” value was 12. For `CN1CCN(c2ccc([N+](=O)[O-])c(-c3nc4ccccc4o3)c2)CC1` [Substrate 8], the “No. of strains detected, Staph spp” value was 12. With `O=[N+]([O-])c1ccc(Cl)cc1-c1nc2ccccc2s1` [Substrate 21] the “No. of strains detected, Staph spp” value was 12.

Same assay, conditions: 48 h
In the case of `Cc1ccc2oc(-c3ccccc3[N+](=O)[O-])nc2c1` [Substrate 3], the “No. of strains detected, Staph spp” value is reported as 12. With `O=[N+]([O-])c1ccc(Cl)cc1-c1nc2ccccc2o1` [Substrate 4] the “No. of strains detected, Staph spp” value was 12. For `CN1CCN(c2ccc([N+](=O)[O-])c(-c3nc4ccccc4o3)c2)CC1` [Substrate 8], the “No. of strains detected, Staph spp” value was 12. For `O=[N+]([O-])c1ccc(Cl)cc1-c1nc2ccccc2s1` [Substrate 21], the “No. of strains detected, Staph spp” value was 12.

The compounds below were run on Enterococcus 6 strains in the same assay as above. Conditions: 24 h.
Type: cell-based
`Cc1ccc2oc(-c3ccccc3[N+](=O)[O-])nc2c1` [Substrate 3] was tested, and the “No. of strains detected, Enterococcus” value was 0. With `O=[N+]([O-])c1ccc(Cl)cc1-c1nc2ccccc2o1` [Substrate 4] the “No. of strains detected, Enterococcus” value was 0. In the case of `CN1CCN(c2ccc([N+](=O)[O-])c(-c3nc4ccccc4o3)c2)CC1` [Substrate 8], the “No. of strains detected, Enterococcus” value is reported as 0. With `O=[N+]([O-])c1ccc(Cl)cc1-c1nc2ccccc2s1` [Substrate 21] the “No. of strains detected, Enterococcus” value was 0.

Same assay, conditions: 48 h
`Cc1ccc2oc(-c3ccccc3[N+](=O)[O-])nc2c1` [Substrate 3] was tested, and the “No. of strains detected, Enterococcus” value was 1. For `O=[N+]([O-])c1ccc(Cl)cc1-c1nc2ccccc2o1` [Substrate 4], the “No. of strains detected, Enterococcus” value was 1. In the case of `CN1CCN(c2ccc([N+](=O)[O-])c(-c3nc4ccccc4o3)c2)CC1` [Substrate 8], the “No. of strains detected, Enterococcus” value is reported as 1. `O=[N+]([O-])c1ccc(Cl)cc1-c1nc2ccccc2s1` [Substrate 21] was tested, and the “No. of strains detected, Enterococcus” value was 1.
